Results: publication PMC11059541 (Tuberculosis (Edinburgh, Scotland), 2011)

Legend:
[1] = tested on: aged non-growing M. tuberculosis H37Ra; test: Activity on aged non-growing M. tuberculosis; conditions: 2 month old H37Ra culture, acid 7H9 pH5.5, 1% oxygen
MtMetAP1a = MtMetAP1a (Mycobacterium tuberculosis, UniProt P9WK21); test: MetAP enzyme inhibition assay; assay type: biochemical; conditions: for selectivity for both MtMetAPs over human MetAPs: MtMetAP1a and MtMetAP1c relative to HsMetAP1 and HsMetAP2, from IC50 values
M. tuberculosis H37Rv = test: Minimum Inhibitory Concentration in replicating M. tuberculosis; assay type: cell-based, Mycobacterium tuberculosis; conditions: ratio of M.I.C. values
MtMetAP1c = MtMetAP1c (Mycobacterium tuberculosis, UniProt P9WK19); test: MetAP enzyme inhibition assay; assay type: biochemical
Chain of MtMetAP1c (P9WK19 whole entry): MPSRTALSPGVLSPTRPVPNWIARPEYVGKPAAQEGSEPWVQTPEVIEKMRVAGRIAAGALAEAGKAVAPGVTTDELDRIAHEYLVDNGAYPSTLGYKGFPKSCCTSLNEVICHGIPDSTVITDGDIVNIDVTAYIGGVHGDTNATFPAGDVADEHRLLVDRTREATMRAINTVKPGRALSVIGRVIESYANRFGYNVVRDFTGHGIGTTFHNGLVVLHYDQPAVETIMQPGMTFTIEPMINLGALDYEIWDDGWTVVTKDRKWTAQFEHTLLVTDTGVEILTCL

Chain of MtMetAP1a (P9WK21 whole entry): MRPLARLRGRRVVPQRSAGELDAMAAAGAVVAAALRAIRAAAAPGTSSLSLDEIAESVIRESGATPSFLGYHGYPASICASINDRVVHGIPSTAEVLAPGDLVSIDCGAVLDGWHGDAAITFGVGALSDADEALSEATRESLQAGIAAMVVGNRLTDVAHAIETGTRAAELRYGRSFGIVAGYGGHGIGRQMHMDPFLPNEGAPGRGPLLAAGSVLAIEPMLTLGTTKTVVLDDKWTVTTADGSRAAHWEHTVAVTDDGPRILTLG

| SMILES | M.I.C. Aged non-growing M. tuberculosis [1] | IC50 (MtMetAP1a) | selectivity for both MtMetAPs over human MetAPs (MtMetAP1a) | potency in replicating M. tuberculosis culture relative to CQ (M. tuberculosis H37Rv) | IC50 (MtMetAP1c) |
| --- | --- | --- | --- | --- | --- |
| Oc1c(Br)cc(Cl)c2cccnc12 [CLBQ14] | 0.65 to 1.62 µg/mL | 5.44 µM | greater than 19 folds | two-fold | 4.92 µM |
| Oc1c(I)cc(Cl)c2cccnc12 [Clioquinol (CQ), clioquinol, reference compound] |  | 9.25 µM | less than 10 folds |  | 11.2 µM |
